Starred links: 1 amine or outer side, 2 acyl side, 3 side chain; linkers in the order of their positions; H or OH if unused. Positions of bridges follow the written chain, without caps; N, C: chain ends. Non-standard residues stand in square brackets, D forms with d. Residues, ends and D or L forms follow the SMILES beside them. No end group written: not given here. *: point of attachment. hTyr(3S-OH,4S-OH,3'-OSO3H) = N[C@H](C(=O)O)[C@H](O)[C@@H](O)c1ccc(O)c(OS(=O)(=O)O)c1; pTerphenylCO(4''-OnC5H11) = CCCCCOc1ccc(-c2ccc(-c3ccc(C(=O)*)cc3)cc2)cc1; Orn(4R-OH,5R-OH) = O=C([C@H](C[C@@H](O)[C@@H](O)N[*:3])N[*:1])[*:2]; hTyr(3S-OH,4S-OH) = N[C@H](C(=O)O)[C@H](O)[C@@H](O)c1ccc(O)cc1; Pro(3S-OH,4S-Me) = C[C@H]1CN[C@H](C(=O)O)[C@H]1O; X1 = CCCCCOc1ccc(-c2cc(-c3ccc(C(=O)*)cc3)no2)cc1; Gln(3R-OH) = NC(=O)C[C@@H](O)[C@H](N)C(=O)O; Hyp = O=C(O)[C@@H]1C[C@@H](O)CN1
How the values were obtained:
[1] = tested on: C. albicans (ATCC10231, ATCC90028, ATCC90029); parameters: key: R: resistant; S: susceptible; DD-S: Dose dependent-susceptible; conditions: ref ATCC; cited from earlier work
From the text: […] T h re e times each experiment was repeated independently with similar results. Representative images are shown. (1 picture or pasted object on this page, not shown here)

S. aureus (ATCC 29213) = assay: Antibacterial activity, colony counting; type: cell-based, Staphylococcus aureus
Description: (§1) The antibacterial effects of Ni-IH-7 were also evaluated with E. coli (CMCC(B)44102), S. aureus (ATCC 29213) and Methicillin-resistant Staphylococcus aureus (MRSA) (ATCC43300), G. vaginalis (ATCC14018) and metronidazole-resistant G. vaginalis (provided by Xishan People’s Hospital of Wuxi City) under the similar procedures as those for C. albicans. Initially, E. coli, S. aureus and MRSA stored at -80°C were thawed and inoculated into Luria-Bertani liquid culture medium for overnight shaking. The culture volume was 5 mL, and the incubation conditions were set at 37°C in an air incubator. The next day, E. coli, S. aureus and MRSA were transferred to fresh culture medium and incubated for 2 h to activate the bacteria. The inoculum was approximately 10^5-6 CFU mL^−1. The culture volume was 10 mL, and the conditions were maintained at 37 °C in an air incubator. The quantities of E. coli, S. aureus and MRSA could reach 10^7-8 CFU mL^−1. Mixtures of 100 µL of E. coli, S. aureus and MRSA with 100 µL of Ni-IH-7 solution were prepared in 800 µL of sterile water and incubated for 0–6 h. Subsequently, 100 µL of different dilutions of the mixture were evenly spread on Luria-Bertani agar plates, followed by incubation at 37 °C from 24 to 48 h, and colony counting assay was performed to determine antibacterial efficiency. Similarly, G. vaginalis stored at −80°C was thawed and inoculated into brain-heart infusion (BHI) medium. This BHI medium consisted of brain/heart infusion broth containing 1% gelatin, 1% yeast extract, 0.1% soluble starch, 0.1% glucose, and 10% fetal bovine serum, and the inoculation process occurred overnight. The volume of the medium used was 5 mL, and the incubation condition was set at 37 °C in an incubator with 5% CO2. Following an overnight incubation post-inoculation, the necessary amount of bacterial solution was taken and transferred into fresh medium at a ratio of 1:25. This fresh medium was then cultured at 37°C with 5% CO2 for 6–8 h until the OD600 reached approximately 0.5. Next, an appropriate quantity of the bacterial inoculum was centrifuged at 4300 × g for 5 min at 4 °C to replace the bacteria from the culture medium with an equivalent volume of sterile water. For the experimental setup, 100 µL of G. vaginalis was mixed with 900 µL of sterile water as the control group. In the experimental group, 100 µL of G. vaginalis was mixed with either Ni-IH-7 solutions, Ni(Ac)2, or metronidazole in 800 µL of sterile water. The colony counting assay was performed to determine antibacterial efficiency.

G. vaginalis (ATCC14018) = assay: Antibacterial activity, colony counting; type: cell-based, Gardnerella vaginalis
Description: as §1

E. coli (CMCC(B)44102) = assay: Antibacterial activity, colony counting; type: cell-based, Escherichia coli
Description: as §1

[2] = PLC-like activity (PLC activity Assay Kit); type: biochemical
Description: To detect POD-like activity, 140 µL of sodium acetate buffer (pH 4.5, 0.2 M), 20 µL of 10 mM TMB, 20 µL of 1.5 mM Ni-IH-7 or 1.5 mM 4H2O·Ni(Ac)2, and 20 µL of H2O2 (50 mM) were added in order and reacted for 2 h at 37 °C. Absorbance at 652 nm was monitored using a microplate reader. PLC activity Assay Kit was used to detect PLC-like activity.

[3] = Variable temperature circular dichroism; type: physicochemical; conditions: variable temperature CD, 20–95 °C
Description: The Ultraviolet-visible (UV-VIS) spectroscopy of samples were collected by a Shimadzu UV-3600. For FTIR, 3 mg of powdered sample and 50 mg of potassium bromide (KBr) were mixed for tablet compression analysis with transmittance at 400–4000 cm^−1, collected using an iS10 FTIR spectrometer (USA). Measurements were performed by averaging 32 scans at 4-cm^−1 resolution (signal-to-noise ratio (S/N) = 50,000). The single-molecule STM imaging experiments were performed under ambient conditions by using a Nanoscope IIIa SPM system (Bruker, USA). 10 μL of the peptide solution was incubated on the surface of freshly cleaved highly oriented pyrolytic graphite (HOPG) at room temperature for 20 min. Then the excess peptide solution was removed from the substrate surface. The STM tips were mechanically made by Ir/Pt wires (20/80). Different STM tips and samples were used in these imaging experiments to ensure reproducibility. […] Zeta potentials of samples were determined using a Zetasizer Nano ZS90 (England) via three tests in a 1-mL sample cell. All CD datum were collected using Chirascan Plus (England) and analyzed at 190-260 nm. […] Pyridine infrared (IR) were measured at 1400–1700 cm^−1 using Thermo Scientific Nicolet 380 (USA). […] The fluorescence signals (I374nm, I394nm) were collected for detecting CMC using the pyrene probe under excitation at 330 nm across various concentrations of peptides.

[4] = 25 μg mL-1, in sterile water, replicate 1 of n = 3
[5] = 25 μg mL-1, in sterile water, replicate 2 of n = 3
[6] = 25 μg mL-1, in sterile water, replicate 3 of n = 3
[7] = 50 μg mL-1, in sterile water, replicate 1 of n = 3
[8] = 50 μg mL-1, in sterile water, replicate 2 of n = 3
[9] = 50 μg mL-1, in sterile water, replicate 3 of n = 3
[10] = 100 μg mL-1, in sterile water, replicate 1 of n = 3
[11] = 100 μg mL-1, in sterile water, replicate 2 of n = 3
[12] = 100 μg mL-1, in sterile water, replicate 3 of n = 3

Nc1nc(=O)[nH]cc1F [5-Flucytosine]
resistance degree of C. albicans ATCC 10231 [1]: S
resistance degree of C. albicans ATCC 90028 [1]: S
resistance degree of C. albicans ATCC 90029 [1]: R

CCCCCOc1ccc(-c2ccc(-c3ccc(C(=O)N[C@H]4C[C@@H](O)[C@@H](O)NC(=O)[C@@H]5[C@@H](O)[C@@H](C)CN5C(=O)[C@H]([C@@H](C)O)NC(=O)[C@H]([C@H](O)[C@@H](O)c5ccc(O)cc5)NC(=O)[C@@H]5C[C@@H](O)CN5C(=O)[C@H]([C@@H](C)O)NC4=O)cc3)cc2)cc1 [Anidulafungin] ({pTerphenylCO(4''-OnC5H11)}-[Orn(4R-OH,5R-OH)]T[Hyp][hTyr(3S-OH,4S-OH)]T[Pro(3S-OH,4S-Me)]; lactam 1-C)
resistance degree of C. albicans ATCC 10231 [1]: R
resistance degree of C. albicans ATCC 90028 [1]: S
resistance degree of C. albicans ATCC 90029 [1]: S

CC[C@H](C)C[C@H](C)CCCCCCCCC(=O)N[C@H]1C[C@@H](O)[C@@H](NCCN)NC(=O)[C@@H]2[C@@H](O)CCN2C(=O)[C@H]([C@H](O)CCN)NC(=O)[C@H]([C@H](O)[C@@H](O)c2ccc(O)cc2)NC(=O)[C@@H]2C[C@@H](O)CN2C(=O)[C@H]([C@@H](C)O)NC1=O [Caspofungin]
resistance degree of C. albicans ATCC 10231 [1]: S
resistance degree of C. albicans ATCC 90028 [1]: S
resistance degree of C. albicans ATCC 90029 [1]: S

OC(Cn1cncn1)(Cn1cncn1)c1ccc(F)cc1F [Fluconazole]
resistance degree of C. albicans ATCC 10231 [1]: R
resistance degree of C. albicans ATCC 90028 [1]: S
resistance degree of C. albicans ATCC 90029 [1]: S

CCC(C)n1ncn(-c2ccc(N3CCN(c4ccc(OCC5COC(Cn6cncn6)(c6ccc(Cl)cc6Cl)O5)cc4)CC3)cc2)c1=O (stereo not shown) [Itraconazole]
resistance degree of C. albicans ATCC 10231 [1]: R
resistance degree of C. albicans ATCC 90028 [1]: DD-S
resistance degree of C. albicans ATCC 90029 [1]: S

CCCCCOc1ccc(-c2cc(-c3ccc(C(=O)N[C@H]4C[C@@H](O)[C@@H](O)NC(=O)[C@@H]5[C@@H](O)[C@@H](C)CN5C(=O)[C@H]([C@H](O)CC(N)=O)NC(=O)[C@H]([C@H](O)[C@@H](O)c5ccc(O)c(OS(=O)(=O)O)c5)NC(=O)[C@@H]5C[C@@H](O)CN5C(=O)[C@H]([C@@H](C)O)NC4=O)cc3)no2)cc1 [Micafungin] (X1-[Orn(4R-OH,5R-OH)]T[Hyp][hTyr(3S-OH,4S-OH,3'-OSO3H)][Gln(3R-OH)][Pro(3S-OH,4S-Me)]; lactam 1-C)
resistance degree of C. albicans ATCC 10231 [1]: S
resistance degree of C. albicans ATCC 90028 [1]: S
resistance degree of C. albicans ATCC 90029 [1]: S

CC(=O)[O-].CC(=O)[O-].O.O.O.O.[Ni+2] [Ni2+, nickel acetate]
Antimicrobial activity toward S. aureus (Figure 7b) (S. aureus (ATCC 29213); [4]): 7.5682
Antimicrobial activity toward S. aureus (Figure 7b) (S. aureus (ATCC 29213); [5]): 6.875
Antimicrobial activity toward S. aureus (Figure 7b) (S. aureus (ATCC 29213); [6]): 7.049
Antimicrobial activity toward S. aureus (Figure 7b) (S. aureus (ATCC 29213); [7]): 7.146
Antimicrobial activity toward S. aureus (Figure 7b) (S. aureus (ATCC 29213); [8]): 6.498
Antimicrobial activity toward S. aureus (Figure 7b) (S. aureus (ATCC 29213); [9]): 7.364
Antimicrobial activity toward S. aureus (Figure 7b) (S. aureus (ATCC 29213); [10]): 6.991
Antimicrobial activity toward S. aureus (Figure 7b) (S. aureus (ATCC 29213); [11]): 7.161
Antimicrobial activity toward S. aureus (Figure 7b) (S. aureus (ATCC 29213); [12]): 7.352
Antimicrobial activity toward G. vaginalis (Figure 7c) (G. vaginalis (ATCC14018); 10 μg mL-1, in sterile water, replicate 1 of n = 3): 5.431
Antimicrobial activity toward G. vaginalis (Figure 7c) (G. vaginalis (ATCC14018); 10 μg mL-1, in sterile water, replicate 2 of n = 3): 5.477
Antimicrobial activity toward G. vaginalis (Figure 7c) (G. vaginalis (ATCC14018); 10 μg mL-1, in sterile water, replicate 3 of n = 3): 5.4624
Antimicrobial activity toward G. vaginalis (Figure 7c) (G. vaginalis (ATCC14018); [7]): 5.826
Antimicrobial activity toward G. vaginalis (Figure 7c) (G. vaginalis (ATCC14018); [8]): 5.602
Antimicrobial activity toward G. vaginalis (Figure 7c) (G. vaginalis (ATCC14018); [9]): 5.74
Antimicrobial activity toward G. vaginalis (Figure 7c) (G. vaginalis (ATCC14018); [10]): 5.13
Antimicrobial activity toward G. vaginalis (Figure 7c) (G. vaginalis (ATCC14018); [11]): 5.041
Antimicrobial activity toward G. vaginalis (Figure 7c) (G. vaginalis (ATCC14018); [12]): 5.1038
Antimicrobial activity toward E. coli (Figure 7a) (E. coli (CMCC(B)44102); [4]): 6.041
Antimicrobial activity toward E. coli (Figure 7a) (E. coli (CMCC(B)44102); [5]): 6.4456
Antimicrobial activity toward E. coli (Figure 7a) (E. coli (CMCC(B)44102); [6]): 6.497
Antimicrobial activity toward E. coli (Figure 7a) (E. coli (CMCC(B)44102); [7]): 5.633
Antimicrobial activity toward E. coli (Figure 7a) (E. coli (CMCC(B)44102); [8]): 6.487
Antimicrobial activity toward E. coli (Figure 7a) (E. coli (CMCC(B)44102); [9]): 6.525
Antimicrobial activity toward E. coli (Figure 7a) (E. coli (CMCC(B)44102); [10]): 5.929
Antimicrobial activity toward E. coli (Figure 7a) (E. coli (CMCC(B)44102); [11]): 6.479
Antimicrobial activity toward E. coli (Figure 7a) (E. coli (CMCC(B)44102); [12]): 6.497
PLC-like activity (Figure 5d) ([2]; replicate 1 of n = 3): 0.0001855
PLC-like activity (Figure 5d) ([2]; replicate 2 of n = 3): 0.002181
PLC-like activity (Figure 5d) ([2]; replicate 3 of n = 3): 0.003085

C[C@@H](c1ncncc1F)[C@](O)(Cn1cncn1)c1ccc(F)cc1F [Voriconazole]
resistance degree of C. albicans ATCC 10231 [1]: S
resistance degree of C. albicans ATCC 90028 [1]: S
resistance degree of C. albicans ATCC 90029 [1]: S

IHIHICI [IH-7]
thermal stability of conformation [3]: changed from random coil at low temperature to α-helix at high temperature

Source: PMC11224359, “Stable peptide-assembled nanozyme mimicking dual antifungal actions” (Nature Communications, 2024)
